Earlier results on one molecule are cited in publication PMC9851200, “Multiparameter phenotypic screening for endogenous TFEB and TFE3 translocation identifies novel chemical series modulating lysosome function” (Autophagy, 2022).

Common to all, as to set-up: method as in original PKIS2 published data
For data set [1], the target named is T1, kinases (KINOMEscan panel) (Homo sapiens, UniProt Q9NRM7).
T1 sequence (Q9NRM7 1-1088): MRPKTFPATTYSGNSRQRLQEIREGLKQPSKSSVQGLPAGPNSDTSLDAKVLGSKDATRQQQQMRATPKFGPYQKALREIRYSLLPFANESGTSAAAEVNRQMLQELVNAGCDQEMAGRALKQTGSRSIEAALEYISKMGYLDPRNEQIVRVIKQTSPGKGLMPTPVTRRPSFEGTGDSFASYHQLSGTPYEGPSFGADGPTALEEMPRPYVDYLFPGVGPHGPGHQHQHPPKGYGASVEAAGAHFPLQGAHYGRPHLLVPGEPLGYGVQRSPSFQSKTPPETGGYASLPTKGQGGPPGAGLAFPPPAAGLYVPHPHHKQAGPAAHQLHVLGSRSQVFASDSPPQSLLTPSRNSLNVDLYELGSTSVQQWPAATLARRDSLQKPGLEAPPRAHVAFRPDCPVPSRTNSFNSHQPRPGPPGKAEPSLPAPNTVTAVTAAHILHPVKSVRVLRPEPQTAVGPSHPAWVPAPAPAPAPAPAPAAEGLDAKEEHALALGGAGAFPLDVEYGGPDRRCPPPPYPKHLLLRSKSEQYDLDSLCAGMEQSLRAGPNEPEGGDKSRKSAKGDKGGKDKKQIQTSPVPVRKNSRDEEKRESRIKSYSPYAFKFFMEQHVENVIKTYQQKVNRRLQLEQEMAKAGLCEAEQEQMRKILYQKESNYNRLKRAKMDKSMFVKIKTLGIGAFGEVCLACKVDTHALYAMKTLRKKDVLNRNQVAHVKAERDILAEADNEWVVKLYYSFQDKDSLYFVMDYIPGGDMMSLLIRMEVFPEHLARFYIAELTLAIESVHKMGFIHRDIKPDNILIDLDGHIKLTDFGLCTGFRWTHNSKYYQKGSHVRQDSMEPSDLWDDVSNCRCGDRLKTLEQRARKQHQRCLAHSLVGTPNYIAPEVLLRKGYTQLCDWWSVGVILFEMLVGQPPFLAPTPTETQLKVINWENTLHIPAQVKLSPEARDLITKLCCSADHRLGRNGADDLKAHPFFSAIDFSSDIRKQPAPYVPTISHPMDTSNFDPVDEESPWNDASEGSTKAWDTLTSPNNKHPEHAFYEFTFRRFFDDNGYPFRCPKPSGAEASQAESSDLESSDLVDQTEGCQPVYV
The following applies: Published KINOMEscan; ref original PKIS2 published data; cited from earlier work.

Data set [2] addresses kinases (KINOMEscan panel) (Homo sapiens, UniProt Q8N5S9). The settings on record: CAMKK1; Published KINOMEscan; ref original PKIS2 published data; cited from earlier work.
Data set [3] concerns the target kinases (KINOMEscan panel) (Homo sapiens, UniProt Q9Y2H9). The following applies: MAST1; Published KINOMEscan; ref original PKIS2 published data; cited from earlier work.
Data set [4] addresses kinases (KINOMEscan panel) (Homo sapiens, UniProt Q15375). The settings on record: EPHA7; Published KINOMEscan; ref original PKIS2 published data; cited from earlier work.
The target in data set [5] is T2, kinases (KINOMEscan panel) (Homo sapiens, UniProt Q8TD19).
T2 sequence (Q8TD19 1-979): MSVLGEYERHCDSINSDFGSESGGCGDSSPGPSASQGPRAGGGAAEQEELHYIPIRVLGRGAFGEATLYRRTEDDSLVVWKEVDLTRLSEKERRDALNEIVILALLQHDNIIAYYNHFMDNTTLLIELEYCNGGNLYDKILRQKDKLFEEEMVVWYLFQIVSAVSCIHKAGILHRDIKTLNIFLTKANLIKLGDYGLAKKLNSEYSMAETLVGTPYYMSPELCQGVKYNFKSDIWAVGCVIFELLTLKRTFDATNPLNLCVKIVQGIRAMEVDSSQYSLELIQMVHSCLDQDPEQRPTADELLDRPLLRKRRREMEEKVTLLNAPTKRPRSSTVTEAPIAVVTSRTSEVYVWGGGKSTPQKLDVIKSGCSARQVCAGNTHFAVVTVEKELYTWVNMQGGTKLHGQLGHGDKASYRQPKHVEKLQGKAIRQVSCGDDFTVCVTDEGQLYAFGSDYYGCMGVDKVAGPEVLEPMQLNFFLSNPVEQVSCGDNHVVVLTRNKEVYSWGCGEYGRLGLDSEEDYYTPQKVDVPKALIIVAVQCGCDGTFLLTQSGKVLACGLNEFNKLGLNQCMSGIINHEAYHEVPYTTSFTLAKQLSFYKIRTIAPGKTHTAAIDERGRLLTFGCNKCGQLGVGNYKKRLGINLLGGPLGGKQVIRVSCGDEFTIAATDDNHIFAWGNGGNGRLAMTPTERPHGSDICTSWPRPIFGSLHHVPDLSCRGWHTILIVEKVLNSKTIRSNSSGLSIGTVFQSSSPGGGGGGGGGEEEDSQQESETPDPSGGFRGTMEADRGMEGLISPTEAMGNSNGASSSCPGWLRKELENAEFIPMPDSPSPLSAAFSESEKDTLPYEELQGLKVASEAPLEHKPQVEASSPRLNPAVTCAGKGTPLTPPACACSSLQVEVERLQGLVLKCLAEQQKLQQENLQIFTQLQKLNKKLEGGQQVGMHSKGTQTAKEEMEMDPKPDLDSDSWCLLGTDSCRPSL
The settings on record: NEK9; Published KINOMEscan; ref original PKIS2 published data; cited from earlier work.

In data set [6] the target is T3, kinases (KINOMEscan panel) (Homo sapiens, UniProt Q9BXA7).
T3 sequence (Q9BXA7 1-367): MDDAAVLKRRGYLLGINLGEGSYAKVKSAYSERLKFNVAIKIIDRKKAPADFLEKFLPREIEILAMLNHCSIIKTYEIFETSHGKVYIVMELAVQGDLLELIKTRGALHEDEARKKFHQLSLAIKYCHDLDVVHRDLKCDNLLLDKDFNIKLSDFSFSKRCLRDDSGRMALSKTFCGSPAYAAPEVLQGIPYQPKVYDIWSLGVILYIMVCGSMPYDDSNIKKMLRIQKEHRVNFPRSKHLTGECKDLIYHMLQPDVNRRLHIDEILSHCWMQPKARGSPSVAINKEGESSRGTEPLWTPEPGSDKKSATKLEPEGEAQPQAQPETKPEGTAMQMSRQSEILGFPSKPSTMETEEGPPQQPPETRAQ
The settings on record: kinase TSSK1B; Published KINOMEscan; ref original PKIS2 published data; cited from earlier work.

kinases (KINOMEscan panel) (Homo sapiens, UniProt Q8N5S9), sequence (Q8N5S9 whole entry): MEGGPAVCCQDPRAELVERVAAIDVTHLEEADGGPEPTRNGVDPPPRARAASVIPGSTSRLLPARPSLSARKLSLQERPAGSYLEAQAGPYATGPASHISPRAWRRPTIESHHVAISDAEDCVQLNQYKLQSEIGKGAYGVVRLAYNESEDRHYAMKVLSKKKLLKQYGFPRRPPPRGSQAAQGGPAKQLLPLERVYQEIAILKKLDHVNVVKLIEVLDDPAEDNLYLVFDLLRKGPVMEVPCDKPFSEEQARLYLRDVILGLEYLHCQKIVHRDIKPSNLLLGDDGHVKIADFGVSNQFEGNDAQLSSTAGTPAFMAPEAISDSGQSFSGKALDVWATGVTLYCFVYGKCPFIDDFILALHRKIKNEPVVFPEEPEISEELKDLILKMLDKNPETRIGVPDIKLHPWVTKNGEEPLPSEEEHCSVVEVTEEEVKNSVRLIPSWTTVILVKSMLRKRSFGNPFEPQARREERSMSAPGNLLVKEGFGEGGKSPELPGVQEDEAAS
kinases (KINOMEscan panel) (Homo sapiens, UniProt Q15375), sequence (Q15375 28-998): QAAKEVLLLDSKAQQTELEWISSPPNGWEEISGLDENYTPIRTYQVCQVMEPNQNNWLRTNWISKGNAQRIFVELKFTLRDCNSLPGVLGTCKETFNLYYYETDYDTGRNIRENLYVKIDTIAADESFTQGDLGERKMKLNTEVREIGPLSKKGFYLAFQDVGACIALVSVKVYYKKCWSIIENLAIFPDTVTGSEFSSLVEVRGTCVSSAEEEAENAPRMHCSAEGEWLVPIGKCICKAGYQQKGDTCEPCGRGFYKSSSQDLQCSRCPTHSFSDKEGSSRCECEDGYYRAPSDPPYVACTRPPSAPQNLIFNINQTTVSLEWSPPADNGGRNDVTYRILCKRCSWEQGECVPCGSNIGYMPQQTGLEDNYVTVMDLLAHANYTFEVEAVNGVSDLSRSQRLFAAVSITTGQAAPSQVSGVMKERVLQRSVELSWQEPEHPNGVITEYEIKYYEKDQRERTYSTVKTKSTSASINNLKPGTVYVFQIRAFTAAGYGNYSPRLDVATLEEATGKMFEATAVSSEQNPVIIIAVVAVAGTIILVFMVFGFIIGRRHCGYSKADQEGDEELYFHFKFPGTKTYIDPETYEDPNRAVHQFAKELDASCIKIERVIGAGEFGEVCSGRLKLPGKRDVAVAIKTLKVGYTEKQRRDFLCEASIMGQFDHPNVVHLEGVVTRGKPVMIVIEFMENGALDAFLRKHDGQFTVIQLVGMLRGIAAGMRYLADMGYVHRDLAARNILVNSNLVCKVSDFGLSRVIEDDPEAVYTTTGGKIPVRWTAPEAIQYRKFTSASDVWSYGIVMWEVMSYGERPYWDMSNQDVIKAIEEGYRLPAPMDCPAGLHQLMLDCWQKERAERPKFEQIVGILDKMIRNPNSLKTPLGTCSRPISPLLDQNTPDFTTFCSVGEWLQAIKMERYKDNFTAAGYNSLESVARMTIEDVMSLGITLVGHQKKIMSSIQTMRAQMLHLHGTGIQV
kinases (KINOMEscan panel) (Homo sapiens, UniProt Q9Y2H9), sequence (Q9Y2H9 whole entry): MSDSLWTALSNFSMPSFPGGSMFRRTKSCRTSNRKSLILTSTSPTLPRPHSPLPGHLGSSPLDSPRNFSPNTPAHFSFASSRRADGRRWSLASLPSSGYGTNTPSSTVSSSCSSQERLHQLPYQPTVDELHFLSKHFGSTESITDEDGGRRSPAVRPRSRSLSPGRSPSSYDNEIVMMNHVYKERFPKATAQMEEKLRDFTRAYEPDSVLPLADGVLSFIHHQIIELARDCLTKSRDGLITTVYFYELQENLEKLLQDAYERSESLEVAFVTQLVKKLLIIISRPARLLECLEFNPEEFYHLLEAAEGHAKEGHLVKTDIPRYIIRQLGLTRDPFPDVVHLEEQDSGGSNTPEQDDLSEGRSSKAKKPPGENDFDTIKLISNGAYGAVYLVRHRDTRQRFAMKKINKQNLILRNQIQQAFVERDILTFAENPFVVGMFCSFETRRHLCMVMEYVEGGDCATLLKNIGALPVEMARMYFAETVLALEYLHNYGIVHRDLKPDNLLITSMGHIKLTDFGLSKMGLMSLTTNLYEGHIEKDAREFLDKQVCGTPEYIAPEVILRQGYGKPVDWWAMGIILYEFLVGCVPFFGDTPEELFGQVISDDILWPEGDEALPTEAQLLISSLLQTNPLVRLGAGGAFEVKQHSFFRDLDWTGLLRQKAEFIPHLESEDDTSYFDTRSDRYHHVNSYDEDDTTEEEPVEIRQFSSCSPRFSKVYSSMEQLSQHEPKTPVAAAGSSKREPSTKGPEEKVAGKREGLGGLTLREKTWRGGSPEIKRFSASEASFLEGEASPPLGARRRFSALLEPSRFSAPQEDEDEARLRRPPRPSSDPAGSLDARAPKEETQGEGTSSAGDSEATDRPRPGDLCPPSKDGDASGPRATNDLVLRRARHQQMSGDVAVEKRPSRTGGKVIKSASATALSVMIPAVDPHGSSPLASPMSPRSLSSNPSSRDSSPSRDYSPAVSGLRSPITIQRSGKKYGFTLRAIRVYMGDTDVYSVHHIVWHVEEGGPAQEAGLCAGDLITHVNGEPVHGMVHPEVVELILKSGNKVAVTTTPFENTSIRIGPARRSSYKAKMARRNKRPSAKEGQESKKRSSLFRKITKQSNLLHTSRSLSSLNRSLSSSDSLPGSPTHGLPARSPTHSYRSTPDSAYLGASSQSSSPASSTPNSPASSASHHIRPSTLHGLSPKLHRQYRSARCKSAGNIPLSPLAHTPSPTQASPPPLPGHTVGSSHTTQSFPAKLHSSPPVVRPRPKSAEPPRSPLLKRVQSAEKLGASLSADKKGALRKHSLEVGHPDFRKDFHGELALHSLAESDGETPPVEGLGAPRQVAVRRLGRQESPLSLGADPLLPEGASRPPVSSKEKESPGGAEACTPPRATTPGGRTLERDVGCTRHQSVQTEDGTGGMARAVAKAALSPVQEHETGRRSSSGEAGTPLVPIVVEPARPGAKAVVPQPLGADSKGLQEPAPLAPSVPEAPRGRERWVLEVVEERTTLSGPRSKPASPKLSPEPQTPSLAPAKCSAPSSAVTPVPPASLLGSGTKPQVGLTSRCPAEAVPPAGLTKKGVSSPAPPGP

Consider `Cc1cccc(-c2nc(Nc3ccncc3)c3ccccc3n2)n1` [NK215], for which the “KINOMEscan LATS2” value in data set [1] is recorded as 0. For the same molecule, the “KINOMEscan CAMKK1” value in data set [2] was 24. Also, the “KINOMEscan MAST1” value in data set [3] was 50. Moreover, the “KINOMEscan EPHA7” value in data set [4] is 0. For the same molecule, in data set [5], the “KINOMEscan NEK9” value is reported as 0. Also, the “KINOMEscan TSSK1B” value in data set [6] is on record as 0.
